Results taken from patent US11786495B2 (priority 2021, dated 2023).
Structures can show the parent of a compound that is named as a salt.

Assays:
[1] = model of spinal stenosis; cited from earlier work
[2] = 70 kg man, estimated, extrapolated from animal models; cited from earlier work
[3] = TEC vs. Lipinski criteria for CNS drug like properties; conditions: four criteria: MW, LogP, HBD, HBA
beta amyloid protein = conditions: varying concentrations of sodium citrate; thioflavin T positive aggregates; cited from earlier work

In the case of `O=C(O)CC(O)(CC(=O)O)C(=O)O` [Citrate], the Bone calcium [1] is given as “decrease bone calcium”.
For `CCOC(=O)CC(O)(CC(=O)OCC)C(=O)OCC` [TEC, Triethyl citrate], the LD50 [2] is listed as about 500 cc and the “Lipinski criteria met for a CNS drug” value [3] is listed as “Three out of four”.
In the case of `O=C([O-])CC(O)(CC(=O)[O-])C(=O)[O-].[Na+].[Na+].[Na+]` [sodium citrate], the “Dissolution of calcium-produced beta amyloid aggregates” value (beta amyloid protein) is given as “aggregates dissolve in response to citrate concentration”.
